Where “and” joins values, the source holds several entries; their conditions need not be identical. Identical values can stand only once. Inconclusive results and toxic doses are left out.
System: BDF1 mice, L1210 leukemia sc, survival T/C
Assay: NCI In Vivo Anticancer Drug Screen. Data for tumor model L1210 Leukemia (subcutaneous) in B6D2F1 (BDF1) mice
Conditions: higher = longer survival
Summary of the method: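 Read-out: T/C ratio, i.e. survival or tumor size in treated mice over that in vehicle-treated controls, from mice bearing transplantable tumors.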

[1] = endpoint: median survival time, dose: 8.4 mg/kg/injection, schedule: Q01DX Z (sc), vehicle: water
[2] = endpoint: median survival time, dose: 14.0 mg/kg/injection, schedule: Q01DX Z (sc), vehicle: water
[3] = endpoint: median survival time, dose: 108.0 mg/kg/injection, schedule: Q01DX Z (sc), vehicle: methylcellulose (MC)
[4] = endpoint: median survival time, dose: 180.0 mg/kg/injection, schedule: Q01DX Z (sc), vehicle: methylcellulose (MC)
[5] = endpoint: median survival time, dose: 23.0 mg/kg/injection, schedule: Q01DX Z (sc), vehicle: water
[6] = endpoint: median survival time, dose: 39.0 mg/kg/injection, schedule: Q01DX Z (sc), vehicle: water
[7] = endpoint: median survival time, dose: 65.0 mg/kg/injection, schedule: Q01DX Z (sc), vehicle: water
[8] = endpoint: median survival time, dose: 108.0 mg/kg/injection, schedule: Q01DX Z (sc), vehicle: water

SMILES: CN(C)c1ccc(/C=C/c2ccnc3ccccc23)cc1
- T/C (endpoint: median survival time, dose: 0.65 mg/kg/injection, schedule: Q01DX Z (sc), vehicle: water): 100 % of control
- T/C (endpoint: median survival time, dose: 1.08 mg/kg/injection, schedule: Q01DX Z (sc), vehicle: water): 100 % of control
- T/C (endpoint: median survival time, dose: 1.8 mg/kg/injection, schedule: Q01DX Z (sc), vehicle: water): 104 % of control
- T/C (endpoint: median survival time, dose: 3.0 mg/kg/injection, schedule: Q01DX Z (sc), vehicle: water): 100 % of control
- T/C (endpoint: median survival time, dose: 5.0 mg/kg/injection, schedule: Q01DX Z (sc), vehicle: water): 100 % of control
- T/C (endpoint: median survival time, dose: 6.0 mg/kg/injection, schedule: Q01DX Z (sc), vehicle: water): 100 % of control
- T/C [1]: 100 % of control
- T/C (endpoint: median survival time, dose: 10.0 mg/kg/injection, schedule: Q01DX Z (sc), vehicle: water): 100 % of control
- T/C [2]: 100 % of control
- T/C (endpoint: median survival time, dose: 17.0 mg/kg/injection, schedule: Q01DX Z (sc), vehicle: water): 100 % of control
- T/C (endpoint: median survival time, dose: 28.0 mg/kg/injection, schedule: Q01DX Z (sc), vehicle: water): 100 % of control
- T/C (endpoint: median survival time, dose: 47.0 mg/kg/injection, schedule: Q01DX Z (sc), vehicle: water): 100 % of control
- T/C (endpoint: median survival time, dose: 78.0 mg/kg/injection, schedule: Q01DX Z (sc), vehicle: water): 110 % of control
- T/C (endpoint: median survival time, dose: 130.0 mg/kg/injection, schedule: Q01DX Z (sc), vehicle: water): 100 % of control

SMILES: O=NN(CCF)C(=O)NC12CC3CC(CC(C3)C1)C2
- T/C (endpoint: median survival time, dose: 14.0 mg/kg/injection, schedule: Q01DX Z (sc), vehicle: carboxymethylcellulose (CMC)): 100 % of control
- T/C (endpoint: median survival time, dose: 23.0 mg/kg/injection, schedule: Q01DX Z (sc), vehicle: carboxymethylcellulose (CMC)): 100 % of control
- T/C (endpoint: median survival time, dose: 65.0 mg/kg/injection, schedule: Q01DX Z (sc), vehicle: carboxymethylcellulose (CMC)): 388 % of control
- T/C (endpoint: median survival time, dose: 108.0 mg/kg/injection, schedule: Q01DX Z (sc), vehicle: carboxymethylcellulose (CMC)): 200 % of control

SMILES: CCCCCCCCCCCCCCCC(=O)OCC1OC(n2ccc(N)nc2=O)C(O)C1O (stereo unspecified)
- T/C (endpoint: median survival time, dose: 9.38 mg/kg/injection, schedule: Q01DX009 (ip), vehicle: saline): 211 % of control
- T/C (endpoint: median survival time, dose: 9.38 mg/kg/injection, schedule: Q01DX009 (sc), vehicle: saline): 177 % of control
- T/C (endpoint: median survival time, dose: 18.75 mg/kg/injection, schedule: Q01DX009 (ip), vehicle: saline): 233 % of control
- T/C (endpoint: median survival time, dose: 18.75 mg/kg/injection, schedule: Q01DX009 (sc), vehicle: saline): 233 % of control
- T/C (endpoint: median survival time, dose: 18.75 mg/kg/injection, schedule: Q04DX003 (sc), vehicle: saline): 183 % of control
- T/C (endpoint: median survival time, dose: 37.5 mg/kg/injection, schedule: Q01DX001 (ip), vehicle: saline): 155 % of control
- T/C (endpoint: median survival time, dose: 37.5 mg/kg/injection, schedule: Q01DX001 (sc), vehicle: saline): 161 % of control
- T/C (endpoint: median survival time, dose: 37.5 mg/kg/injection, schedule: Q01DX009 (sc), vehicle: saline): 188 % of control
- T/C (endpoint: median survival time, dose: 37.5 mg/kg/injection, schedule: Q04DX003 (ip), vehicle: saline): 216 % of control
- T/C (endpoint: median survival time, dose: 37.5 mg/kg/injection, schedule: Q04DX003 (sc), vehicle: saline): 233 % of control
- T/C (endpoint: median survival time, dose: 75.0 mg/kg/injection, schedule: Q01DX001 (ip), vehicle: saline): 194 % of control
- T/C (endpoint: median survival time, dose: 75.0 mg/kg/injection, schedule: Q01DX001 (sc), vehicle: saline): 95 % of control and 98 % of control and 233 % of control
- T/C (endpoint: median survival time, dose: 75.0 mg/kg/injection, schedule: Q01DX009 (sc), vehicle: saline): 150 % of control
- T/C (endpoint: median survival time, dose: 75.0 mg/kg/injection, schedule: Q04DX003 (ip), vehicle: saline): 227 % of control
- T/C (endpoint: median survival time, dose: 75.0 mg/kg/injection, schedule: Q04DX003 (sc), vehicle: saline): 244 % of control
- T/C (endpoint: median survival time, dose: 150.0 mg/kg/injection, schedule: Q01DX001 (ip), vehicle: saline): 255 % of control
- T/C (endpoint: median survival time, dose: 150.0 mg/kg/injection, schedule: Q01DX001 (sc), vehicle: saline): 95 % of control and 98 % of control and 238 % of control
- T/C (endpoint: median survival time, dose: 150.0 mg/kg/injection, schedule: Q01DX009 (ip), vehicle: saline): 122 % of control
- T/C (endpoint: median survival time, dose: 150.0 mg/kg/injection, schedule: Q04DX003 (ip), vehicle: saline): 177 % of control
- T/C (endpoint: median survival time, dose: 150.0 mg/kg/injection, schedule: Q04DX003 (sc), vehicle: saline): 150 % of control
- T/C (endpoint: median survival time, dose: 600.0 mg/kg/injection, schedule: Q01DX001 (ip), vehicle: saline): 116 % of control

SMILES: CSc1ncnc2nc[nH]c12
- T/C (endpoint: median survival time, dose: 38.9 mg/kg/injection, schedule: Q01DX Z (sc), vehicle: methylcellulose (MC)): 95 % of control
- T/C (endpoint: median survival time, dose: 64.8 mg/kg/injection, schedule: Q01DX Z (sc), vehicle: methylcellulose (MC)): 105 % of control
- T/C [3]: 110 % of control
- T/C [4]: 100 % of control

SMILES: [N-]=[N+]=CC(=O)NCC(=O)NN
- T/C (endpoint: median survival time, dose: 65.0 mg/kg/injection, schedule: Q01DX Z (sc), vehicle: saline): 90 % of control
- T/C (endpoint: median survival time, dose: 108.0 mg/kg/injection, schedule: Q01DX Z (sc), vehicle: saline): 100 % of control
- T/C (endpoint: median survival time, dose: 180.0 mg/kg/injection, schedule: Q01DX Z (sc), vehicle: saline): 100 % of control
- T/C (endpoint: median survival time, dose: 300.0 mg/kg/injection, schedule: Q01DX Z (sc), vehicle: saline): 100 % of control
- T/C (endpoint: median survival time, dose: 500.0 mg/kg/injection, schedule: Q01DX Z (sc), vehicle: saline): 100 % of control
- T/C (endpoint: median survival time, dose: 833.0 mg/kg/injection, schedule: Q01DX Z (sc), vehicle: saline): 107 % of control

SMILES: Nc1cc(C(=O)Nc2ccc(C3=NCCN3)cc2)ccc1C(=O)Nc1ccc(C2=NCCN2)cc1
- T/C (endpoint: median survival time, dose: 1.0 mg/kg/injection, schedule: Q01DX Z (iv), vehicle: water): 100 % of control
- T/C (endpoint: median survival time, dose: 2.0 mg/kg/injection, schedule: Q01DX Z (iv), vehicle: water): 100 % of control
- T/C (endpoint: median survival time, dose: 2.0 mg/kg/injection, schedule: Q01DX Z (sc), vehicle: water): 110 % of control
- T/C (endpoint: median survival time, dose: 4.0 mg/kg/injection, schedule: Q01DX Z (iv), vehicle: water): 120 % of control
- T/C (endpoint: median survival time, dose: 4.0 mg/kg/injection, schedule: Q01DX Z (sc), vehicle: water): 215 % of control
- T/C (endpoint: median survival time, dose: 8.0 mg/kg/injection, schedule: Q01DX Z (iv), vehicle: water): 215 % of control
- T/C (endpoint: median survival time, dose: 8.0 mg/kg/injection, schedule: Q01DX Z (sc), vehicle: water): 230 % of control
- T/C (endpoint: median survival time, dose: 16.0 mg/kg/injection, schedule: Q01DX Z (iv), vehicle: water): 215 % of control
- T/C (endpoint: median survival time, dose: 16.0 mg/kg/injection, schedule: Q01DX Z (sc), vehicle: water): 245 % of control
- T/C (endpoint: median survival time, dose: 32.0 mg/kg/injection, schedule: Q01DX Z (sc), vehicle: water): 195 % of control

SMILES: CC1CN1CCS(=O)(=O)CCN1CC1C (stereo unspecified)
- T/C (endpoint: median survival time, dose: 5.18 mg/kg/injection, schedule: Q01DX Z (sc), vehicle: saline): 121 % of control
- T/C (endpoint: median survival time, dose: 8.64 mg/kg/injection, schedule: Q01DX Z (sc), vehicle: saline): 168 % of control
- T/C (endpoint: median survival time, dose: 14.4 mg/kg/injection, schedule: Q01DX Z (sc), vehicle: saline): 163 % of control
- T/C (endpoint: median survival time, dose: 24.0 mg/kg/injection, schedule: Q01DX Z (sc), vehicle: saline): 115 % of control
- T/C (endpoint: median survival time, dose: 40.0 mg/kg/injection, schedule: Q01DX Z (sc), vehicle: saline): 105 % of control

SMILES: CN(C)Nc1ncnc2nc[nH]c12
- T/C [1]: 100 % of control
- T/C [2]: 100 % of control
- T/C [5]: 111 % of control
- T/C [6]: 105 % of control
- T/C [7]: 111 % of control
- T/C [8]: 100 % of control

SMILES: CCOC(C)C(=O)C=O (stereo unspecified)
- T/C [5]: 100 % of control
- T/C [6]: 100 % of control
- T/C [7]: 100 % of control
- T/C [8]: 100 % of control
- T/C (endpoint: median survival time, dose: 180.0 mg/kg/injection, schedule: Q01DX Z (sc), vehicle: water): 100 % of control
- T/C (endpoint: median survival time, dose: 300.0 mg/kg/injection, schedule: Q01DX Z (sc), vehicle: water): 100 % of control
- T/C (endpoint: median survival time, dose: 500.0 mg/kg/injection, schedule: Q01DX Z (sc), vehicle: water): 105 % of control

SMILES: CCCCCCCSc1ncnc2nc[nH]c12
- T/C [3]: 111 % of control
- T/C [4]: 111 % of control
- T/C (endpoint: median survival time, dose: 300.0 mg/kg/injection, schedule: Q01DX Z (sc), vehicle: methylcellulose (MC)): 100 % of control
- T/C (endpoint: median survival time, dose: 500.0 mg/kg/injection, schedule: Q01DX Z (sc), vehicle: methylcellulose (MC)): 100 % of control
- T/C (endpoint: median survival time, dose: 833.0 mg/kg/injection, schedule: Q01DX Z (sc), vehicle: methylcellulose (MC)): 100 % of control
- T/C (endpoint: median survival time, dose: 1388.0 mg/kg/injection, schedule: Q01DX Z (sc), vehicle: methylcellulose (MC)): 100 % of control

SMILES: COc1cc(NS(C)(=O)=O)ccc1Nc1c2ccccc2nc2c(C)cccc12
- T/C (endpoint: mean survival time, dose: 2.5 mg/kg/injection, schedule: Q01DX009 (ip), vehicle: saline): 100 % of control and 114 % of control
- T/C (endpoint: mean survival time, dose: 5.0 mg/kg/injection, schedule: Q01DX009 (ip), vehicle: saline): 108 % of control and 103 % of control
- T/C (endpoint: mean survival time, dose: 10.0 mg/kg/injection, schedule: Q01DX009 (ip), vehicle: saline): 99 % of control
